Reference: patent publication US8802597B2, “Herbicidal pyrimidines” (E I du Pont de Nemours and Company, priority 2003, dated 2014)

Tests used:
Test in all cases: Test C pre/postemergence
Assay type in all cases: in vivo
[1] = test system: johnsongrass (Sorghum halepense); conditions: Preemergence
Source text: (§1) Seeds or nutlets of plant species selected from bermudagrass (Cynodon dactylon), Surinam grass (Brachiaria decumbens), cocklebur (Xanthium strumarium), corn (Zea mays), crabgrass (Digitaria sanguinalis), woolly cupgrass (Eriochloa villosa), giant foxtail (Setaria faberii), goosegrass (Eleusine indica), johnsongrass (Sorghum halepense), kochia (Kochia scoparia), lambsquarters (Chenopodium album), morningglory (Ipomoea coccinea), eastern black nightshade (Solanum ptycanthum), yellow nutsedge (Cyperus esculentus), pigweed (Amaranthus retroflexus), common ragweed (Ambrosia elatior), soybean (Glycine max), common (oilseed) sunflower (Helianthus annuus), and velvetleaf (Abutilon theophrasti) were planted and treated preemergence with test chemicals formulated in a non-phytotoxic solvent mixture which included a surfactant.
(§2) At the same time, plants selected from these crop and weed species and also winter barley (Hordeum vulgare), blackgrass (Alopecurus myosuroides), canarygrass (Phalaris minor), chickweed (Stellaria media), downy brome (Bromus tectorum), green foxtail (Setaria viridis), Italian ryegrass (Lolium multiflorum), wheat (Triticum aestivum), wild oat (Avena fatua) and windgrass (Apera spica-venti) were treated with postemergence applications of some of the test chemicals formulated in the same manner. Plants ranged in height from 2 to 18 cm (1- to 4-leaf stage) for postemergence treatments. Plant species in the flooded paddy test consisted of rice (Oryza sativa), umbrella sedge (Cyperus difformis), duck salad (Heteranthera limosa) and barnyardgrass (Echinochloa crus-galli) grown to the 2-leaf stage for testing. Treated plants and controls were maintained in a greenhouse for 12 to 14 days, after which time all species were compared to controls and visually evaluated. Plant response ratings, summarized in Table C, are based on a scale of 0 to 100 where 0 is no effect and 100 is complete control. A dash (-) response means no test result.

[2] = test system: pigweed (Amaranthus retroflexus); conditions: Preemergence
Source text: as §1, §2

[3] = test system: kochia (Kochia scoparia); conditions: Bassia scoparia, pre-emergence, Preemergence, read-out: Plant response rating, Kochia
Source text: as §1, §2

[4] = test system: cocklebur (Xanthium strumarium); conditions: Preemergence
Source text: as §1, §2

[5] = test system: crabgrass (Digitaria sanguinalis); conditions: Preemergence
Source text: as §1, §2

[6] = 62 g ai/ha, scale 0 to 100, 0 no effect, 100 complete control

SMILES: Nc1nc(C2CC2)nc(C=O)c1Br [Compound 26]
- pest or weed control at 62 g/ha ([1]; Sorghum halepense, pre-emergence, 62 g ai/ha, scale 0 to 100, 0 no effect, 100 complete control, read-out: Plant response rating, Johnsongrass): 0%
- pest or weed control at 250 g/ha ([1]; Sorghum halepense, pre-emergence, 250 g ai/ha, scale 0 to 100, read-out: Plant response rating, Johnsongrass): 0%
- pest or weed control at 500 g/ha ([1]; Sorghum halepense, pre-emergence, 500 g ai/ha, scale 0 to 100, read-out: Plant response rating, Johnsongrass): 100%
- pest or weed control at 62 g/ha ([2]; Amaranthus retroflexus, pre-emergence, 62 g ai/ha, scale 0 to 100, 0 no effect, 100 complete control, read-out: Plant response rating, Pigweed): 30%
- pest or weed control at 125 g/ha ([2]; Amaranthus retroflexus, pre-emergence, 125 g ai/ha, scale 0 to 100, read-out: Plant response rating, Pigweed): 100%
- pest or weed control at 250 g/ha ([2]; Amaranthus retroflexus, pre-emergence, 250 g ai/ha, scale 0 to 100, read-out: Plant response rating, Pigweed): 100%
- pest or weed control at 500 g/ha ([2]; Amaranthus retroflexus, pre-emergence, 500 g ai/ha, scale 0 to 100, read-out: Plant response rating, Pigweed): 100%
- pest or weed control at 62 g/ha [3, 6]: 0%
- pest or weed control at 500 g/ha ([3]; 500 g ai/ha, scale 0 to 100): 50%
- pest or weed control at 62 g/ha ([4]; Xanthium strumarium, pre-emergence, 62 g ai/ha, scale 0 to 100, 0 no effect, 100 complete control, read-out: Plant response rating, Cocklebur): 70%
- pest or weed control at 125 g/ha ([4]; Xanthium strumarium, pre-emergence, 125 g ai/ha, scale 0 to 100, read-out: Plant response rating, Cocklebur): 70%
- pest or weed control at 250 g/ha ([4]; Xanthium strumarium, pre-emergence, 250 g ai/ha, scale 0 to 100, read-out: Plant response rating, Cocklebur): 90%
- pest or weed control at 500 g/ha ([4]; Xanthium strumarium, pre-emergence, 500 g ai/ha, scale 0 to 100, read-out: Plant response rating, Cocklebur): 95%

SMILES: CCOC(=O)c1nc(C2CC2)nc(N=CN(C)C)c1Br [Compound 40]
- Plant response rating, Johnsongrass [1, 6]: 0
- Plant response rating, Johnsongrass ([1]; 125 g ai/ha, scale 0 to 100): 80
- Plant response rating, Johnsongrass ([1]; 250 g ai/ha, scale 0 to 100): 80
- Plant response rating, Johnsongrass ([1]; 500 g ai/ha, scale 0 to 100): 95
- Plant response rating, Crabgrass [5, 6]: 5
- Plant response rating, Crabgrass ([5]; 500 g ai/ha, scale 0 to 100): 100
- Plant response rating, Pigweed [2, 6]: 20
- Plant response rating, Pigweed ([2]; 125 g ai/ha, scale 0 to 100): 100
- Plant response rating, Pigweed ([2]; 250 g ai/ha, scale 0 to 100): 100
- Plant response rating, Pigweed ([2]; 500 g ai/ha, scale 0 to 100): 100
- Plant response rating, Cocklebur [4, 6]: 5
- Plant response rating, Cocklebur ([4]; 125 g ai/ha, scale 0 to 100): 70
- Plant response rating, Cocklebur ([4]; 250 g ai/ha, scale 0 to 100): 90
- Plant response rating, Cocklebur ([4]; 500 g ai/ha, scale 0 to 100): 100
